Assay results as given in patent US9951064B2, “Azaindazole compounds as inhibitors of T790M containing EGFR mutants” (Genentech, Inc., priority 2013, dated 2018).

Legend:
[1] = target: T1, phosphor-EGFR in H1975(L585R/T790M) mutant EGFR expressing cells (Homo sapiens, UniProt P00533, L858R/T790M); test: H1975 pEGFR MSD cellular assay; type: cell-based; settings: NCI-H1975 cells, serum starved, 1 hour compound incubation, pEGFR Tyr1068 MSD; read-out: HI975 pEGFR EC50
T1 construct: host or cells: NCI-H1975
In short: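 NCI-H1975 cells, 30,000/well, serum-starved overnight, then treated 1 hour at 37° C with serially diluted compounds in serum-free medium (0.5% DMSO). Lysates captured on anti-phospho-EGFR plates overnight at 4° C, detected with SULFO-TAG anti-total EGFR by electrochemiluminescence. Inhibition vs untreated controls; EC50 from 4-parameter logistic fit.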

[2] = test system: H1975 (EGFR T790M/L858R) cell proliferation; test: H1975 proliferation assay (Cell Titer-Glo); type: cell-based; settings: Homo sapiens, NCI-H1975, 72 h, NCI-H1975 cells, 72 hour incubation, read-out: H1975 antiproliferative EC50
Procedure: H1975 Proliferation Assays
All cell culture reagents were purchased from Invitrogen/Gibco. Cells are cultured at 37° C. at 5% CO2 and split as recommended by ATCC.

EGFR T790M L858R = target: T2, EGFR T790M L858R (Homo sapiens, UniProt P00533, L858R/T790M); test: EGFR T790M L858R biochemical assay (Caliper mobility shift); settings: 5 μM ATP; apparent Ki (Morrison fit) converted by Cheng-Prusoff, Km of ATP 1.3 μM
T2 construct: purchased Life Technologies PV4879
In short: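 Reactions run 30 minutes at room temperature (22 °C), stopped with 80 mM EDTA. Phosphorylated product and substrate separated electrophoretically and quantified by Caliper mobility shift.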

EGFR del746-750 T790M = target: T3, EGFR del746-750 T790M (Homo sapiens, UniProt P00533, DEL746-750/T790M); test: EGFR del746-750 T790M biochemical assay (Caliper mobility shift); settings: 5 μM ATP; apparent Ki (Morrison fit) converted by Cheng-Prusoff, Km of ATP 2.1 μM; read-out: EGFR(T790M/d746-750) Ki
T3 construct: purchased Carna Biosciences 08-528
Procedure: The exemplified compounds described herein were tested according to the assay below. The enzyme data reported in Tables 4-5 is generally a representative of multiple experiments.
Reactions proceed for 30 minutes at room temperature (22° C.) and are terminated with 80 mM 2,2′,2″,2″′-(ethane-1,2-diyldinitrilo)tetraacetic acid (EDTA). Product is detected using the Caliper mobility shift detection method where product and substrate are electrophoretically separated and measured.

T3 sequence (P00533 with tags, fused parts or gaps DEL746-750/T790M limits assumed): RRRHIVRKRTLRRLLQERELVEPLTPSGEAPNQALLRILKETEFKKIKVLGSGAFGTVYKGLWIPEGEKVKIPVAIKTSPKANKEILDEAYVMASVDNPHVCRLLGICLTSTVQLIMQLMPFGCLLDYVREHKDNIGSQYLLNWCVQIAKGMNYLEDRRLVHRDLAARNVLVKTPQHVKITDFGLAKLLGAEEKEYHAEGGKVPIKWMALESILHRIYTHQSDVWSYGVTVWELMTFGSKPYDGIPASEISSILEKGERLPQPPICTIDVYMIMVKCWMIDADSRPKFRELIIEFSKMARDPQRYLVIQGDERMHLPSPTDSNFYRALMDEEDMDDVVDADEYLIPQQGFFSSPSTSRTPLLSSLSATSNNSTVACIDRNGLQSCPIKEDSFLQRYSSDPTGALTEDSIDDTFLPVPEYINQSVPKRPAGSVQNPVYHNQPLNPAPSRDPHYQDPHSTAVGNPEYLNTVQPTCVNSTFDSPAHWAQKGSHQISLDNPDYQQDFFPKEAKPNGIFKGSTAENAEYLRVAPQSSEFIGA
T1 sequence (P00533 25-1210 T790M/L858R): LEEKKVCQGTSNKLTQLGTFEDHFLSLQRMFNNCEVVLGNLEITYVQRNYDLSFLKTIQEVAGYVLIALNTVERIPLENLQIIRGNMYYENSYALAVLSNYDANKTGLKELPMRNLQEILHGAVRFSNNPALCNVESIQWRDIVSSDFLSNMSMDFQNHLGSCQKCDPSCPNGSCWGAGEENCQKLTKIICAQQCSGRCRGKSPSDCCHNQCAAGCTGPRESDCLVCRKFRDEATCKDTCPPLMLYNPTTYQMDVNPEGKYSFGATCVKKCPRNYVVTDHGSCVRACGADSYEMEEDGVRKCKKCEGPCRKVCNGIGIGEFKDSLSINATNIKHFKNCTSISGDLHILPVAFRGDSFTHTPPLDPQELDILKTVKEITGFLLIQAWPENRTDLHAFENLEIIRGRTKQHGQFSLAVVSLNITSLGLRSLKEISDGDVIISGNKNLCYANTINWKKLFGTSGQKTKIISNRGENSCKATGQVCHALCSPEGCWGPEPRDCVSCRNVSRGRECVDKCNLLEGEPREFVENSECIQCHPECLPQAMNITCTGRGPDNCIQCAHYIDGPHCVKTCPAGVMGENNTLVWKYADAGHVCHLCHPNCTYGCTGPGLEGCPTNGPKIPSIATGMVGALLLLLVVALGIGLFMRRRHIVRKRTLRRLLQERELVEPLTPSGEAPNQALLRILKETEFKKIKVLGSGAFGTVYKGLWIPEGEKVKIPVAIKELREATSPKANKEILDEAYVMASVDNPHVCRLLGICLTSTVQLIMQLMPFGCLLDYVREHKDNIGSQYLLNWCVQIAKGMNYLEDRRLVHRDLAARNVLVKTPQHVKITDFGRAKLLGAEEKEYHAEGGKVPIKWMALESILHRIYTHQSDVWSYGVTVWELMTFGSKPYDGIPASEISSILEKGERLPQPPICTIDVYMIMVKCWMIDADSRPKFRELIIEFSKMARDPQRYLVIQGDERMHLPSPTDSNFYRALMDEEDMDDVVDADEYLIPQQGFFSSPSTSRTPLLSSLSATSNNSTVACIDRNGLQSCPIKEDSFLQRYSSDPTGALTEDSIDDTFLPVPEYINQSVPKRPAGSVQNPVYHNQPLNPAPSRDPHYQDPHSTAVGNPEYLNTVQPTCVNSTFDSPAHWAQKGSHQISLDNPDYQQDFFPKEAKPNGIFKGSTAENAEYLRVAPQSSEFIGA
T2 sequence (P00533 25-1210 T790M/L858R): as above

SMILES: CCC(C)n1nc(N2CC[C@@H](O)C2)c2cnc(Nc3ccnc(N4CCC(CC#N)(OC)CC4)n3)cc21 (mixture of isomers) [Example 81, 2-(1-(4-(1-sec-Butyl-3-((R)-3-hydroxypyrrolidin-1-yl)-1H-pyrazolo[4,3-c]pyridin-6-ylamino)pyrimidin-2-yl)-4-methoxypiperidin-4-yl)acetonitrile]
- EC50 [1]: 265 nM
- EC50 [2]: 1470 nM
- Ki (EGFR T790M L858R): 6.4 nM
- Ki (EGFR del746-750 T790M): 7.1 nM

SMILES: CCC(C)n1nc(N2CCNC2=O)c2cnc(Nc3ccnc(N4CC[C@H](OC)[C@H](F)C4)n3)cc21 (mixture of isomers) [Example 98, 1-{1-(sec-Butyl)-6-[2-((3R,4S)-3-fluoro-4-methoxypiperidin-1-yl)pyrimidin-4-ylamino]-1H-pyrazolo[4,3-c]pyridin-3-yl}imidazolidin-2-one]
- EC50 [1]: 39.5 nM
- EC50 [2]: 256 nM
- Ki (EGFR T790M L858R): 1 nM
- Ki (EGFR del746-750 T790M): 1.8 nM

SMILES: CCC(C)n1nc(N2C[C@@H](CO)NC2=O)c2cnc(Nc3ccnc(N4CCC(C)(O)CC4)n3)cc21 (mixture of isomers) [Example 176, (4S)-1-(1-sec-Butyl-6-(2-(4-hydroxy-4-methylpiperidin-1-yl)pyrimidin-4-ylamino)-1H-pyrazolo[4,3-c]pyridin-3-yl)-4-(hydroxymethyl)imidazolidin-2-one]
- EC50 [1]: 3980 nM
- EC50 [2]: > 10000 nM
- Ki (EGFR T790M L858R): 3.3 nM
- Ki (EGFR del746-750 T790M): 12.1 nM

SMILES: CC(C)n1nc(N2CC3(COC3)C2)c2cnc(Nc3ccnc(N4CCC(O)C(F)C4)n3)cc21 (racemic) [Example 21, (±)-cis-3-Fluoro-1-{4-[1-isopropyl-3-(2-oxa-6-azaspiro[3.3]hept-6-yl)-1H-pyrazolo[4,3-c]pyridin-6-ylamino]-pyrimidin-2-yl}piperidin-4-ol]
- EC50 [1]: 36.1 nM
- EC50 [2]: 390 nM
- Ki (EGFR T790M L858R): 1.2 nM
- Ki (EGFR del746-750 T790M): 3 nM

SMILES: CC(C)n1nc(N2CCNC2=O)c2cnc(Nc3ccnc(N4CCC(O)C(F)C4)n3)cc21 (racemic) [Example 22, (±)-1-(6-((2-(cis-3-Fluoro-4-hydroxypiperidin-1-yl)pyrimidin-4-yl)amino)-1-isopropyl-1H-pyrazolo[4,3-c]pyridin-3-yl)imidazolidin-2-one]
- EC50 [1]: 487 nM
- EC50 [2]: > 3000 nM
- Ki (EGFR T790M L858R): 5.4 nM
- Ki (EGFR del746-750 T790M): 20.5 nM

SMILES: COC1CCN(c2nccc(Nc3cc4c(cn3)c(N3CC5(COC5)C3)nn4C(C)C)n2)CC1F (racemic) [Example 23, (±)-2-(cis-3-Fluoro-4-methoxypiperidin-1-yl)pyrimidin-4-yl]-[1-isopropyl-3-(2-oxa-6-azaspiro[3.3]hept-6-yl)-1H-pyrazolo[4,3-c]pyridin-6-yl]amine]
- EC50 [1]: 23.1 nM
- EC50 [2]: 248 nM
- Ki (EGFR T790M L858R): 1.1 nM
- Ki (EGFR del746-750 T790M): 3.9 nM

SMILES: CC(C)n1nc(N2CC3(COC3)C2)c2cnc(Nc3ccnc(N4CC[C@](C)(O)[C@H](F)C4)n3)cc21 (racemic) [Example 64, (3RS,4SR)-3-Fluoro-1-{4-[1-isopropyl-3-(2-oxa-6-azaspiro[3,3]hept-6-yl)-1H-pyrazolo[4,3-c]pyridin-6-ylamino]pyrimidin-2-yl}-4-methylpiperidin-4-ol]
- EC50 [1]: 223 nM
- EC50 [2]: 701 nM
- Ki (EGFR T790M L858R): 3.6 nM
- Ki (EGFR del746-750 T790M): 16.1 nM

SMILES: CC(C)n1nc(N2CCO[C@@H](CO)C2)c2cnc(Nc3ccnc(N4CCC(O)C(F)C4)n3)cc21 (mixture of isomers) [Example 75, cis-3-Fluoro-1-(4-(3-((R)-2-(hydroxymethyl)morpholino)-1-isopropyl-1H-pyrazolo[4,3-c]pyridin-6-ylamino)pyrimidin-2-yl)piperidin-4-ol]
- EC50 [1]: 1330 nM
- EC50 [2]: 7820 nM
- Ki (EGFR T790M L858R): 4.1 nM
- Ki (EGFR del746-750 T790M): 10.3 nM

SMILES: CCC(C)n1nc(N2CC(O)(CO)C2)c2cnc(Nc3ccnc(N4CCC(C)(O)CC4)n3)cc21 (racemic) [Example 80, (±)-1-(4-(1-sec-Butyl-3-(3-hydroxy-3-(hydroxymethyl)azetidin-1-yl)-1H-pyrazolo[4,3-c]pyridin-6-ylamino)pyrimidin-2-yl)-4-methylpiperidin-4-ol]
- EC50 [1]: 4370 nM
- EC50 [2]: > 10000 nM
- Ki (EGFR T790M L858R): 4.1 nM
- Ki (EGFR del746-750 T790M): 9.4 nM

SMILES: CC(C)n1nc(N2CCC(C(N)=O)C2)c2cnc(Nc3ccnc(-c4cnn(S(=O)(=O)C5CC5)c4)n3)cc21 (stereo not shown) [Example 60, 1-(6-(2-(1-(cyclopropylsulfonyl)-1H-pyrazol-4-yl)pyrimidin-4-ylamino)-1-isopropyl-1H-pyrazolo[4,3-c]pyridin-3-yl)pyrrolidine-3-carboxamide]
- EC50 [1]: 28.2 nM
- EC50 [2]: 608 nM
- Ki (EGFR del746-750 T790M): 0.5 nM

SMILES: CC(C)n1nc(NC2CNC(=O)C2)c2cnc(Nc3ccnc(N4CCC(C)(O)CC4)n3)cc21 (stereo not shown) [Example 77, 4-(6-(2-(4-Hydroxy-4-methylpiperidin-1-yl)pyrimidin-4-ylamino)-1-isopropyl-1H-pyrazolo[4,3-c]pyridin-3-ylamino)pyrrolidin-2-one]
- EC50 [2]: > 10000 nM
- Ki (EGFR T790M L858R): 18.7 nM
- Ki (EGFR del746-750 T790M): 29.2 nM

SMILES: CC(C)n1nc(N2CCN(C(=O)C(C)(C)O)CC2)c2cnc(Nc3ccnc(N4CCC(C)(O)CC4)n3)cc21 [Example 78, 2-Hydroxy-1-(4-(6-(2-(4-hydroxy-4-methylpiperidin-1-yl)pyrimidin-4-ylamino)-1-isopropyl-1H-pyrazolo[4,3-c]pyridin-3-yl)piperazin-1-yl)-2-methylpropan-1-one]
- Ki (EGFR T790M L858R): 21.5 nM
- Ki (EGFR del746-750 T790M): 75.5 nM

SMILES: CC1CCC(C)N1c1nn(C(C)C)c2cc(Nc3ccnc(-c4cnn(S(=O)(=O)C5CC5)c4)n3)ncc12 (stereo not shown) [Example 91, N-(2-(1-(Cyclopropylsulfonyl)-1H-pyrazol-4-yl)pyrimidin-4-yl)-3-(2,5-dimethylpyrrolidin-1-yl)-1-isopropyl-1H-pyrazolo[4,3-c]pyridin-6-amine]
- Ki (EGFR T790M L858R): 20.2 nM
- Ki (EGFR del746-750 T790M): 20.4 nM

SMILES: CC(C)n1nc(C#N)c2cnc(Nc3ccnc(-c4cnn(S(=O)(=O)C5CC5)c4)n3)cc21 [Example 93, 6-(2-(1-(Cyclopropylsulfonyl)-1H-pyrazol-4-yl)pyrimidin-4-ylamino)-1-isopropyl-1H-pyrazolo[4,3-c]pyridine-3-carbonitrile]
- Ki (EGFR T790M L858R): 110 nM
- Ki (EGFR del746-750 T790M): 65.4 nM

SMILES: CC(C)n1nc(C2(C)CCCO2)c2cnc(Nc3ccnc(N4CCC(C)(O)CC4)n3)cc21 (stereo not shown) [Example 94, 1-(4-(1-Isopropyl-3-(2-methyltetrahydrofuran-2-yl)-1H-pyrazolo[4,3-c]pyridin-6-ylamino)pyrimidin-2-yl)-4-methylpiperidin-4-ol]
- Ki (EGFR T790M L858R): 872 nM
- Ki (EGFR del746-750 T790M): > 2900 nM

SMILES: CC(C)n1nc(C2=NC(C)(C)NC2=O)c2cnc(Nc3ccnc(N4CCC(C)(O)CC4)n3)cc21 [Example 95, 4-(6-(2-(4-Hydroxy-4-methylpiperidin-1-yl)pyrimidin-4-ylamino)-1-isopropyl-1H-pyrazolo[4,3-c]pyridin-3-yl)-2,2-dimethyl-1,2-dihydroimidazol-5-one]
- Ki (EGFR T790M L858R): 15.2 nM
- Ki (EGFR del746-750 T790M): 59.5 nM

SMILES: CCC(=O)N1CCN(c2nn(C(C)C)c3cc(Nc4ccnc(N5CCC(C)(O)CC5)n4)ncc23)CC1 [Example 134, 1-(4-(6-(2-(4-Hydroxy-4-methylpiperidin-1-yl)pyrimidin-4-ylamino)-1-isopropyl-1H-pyrazolo[4,3-c]pyridin-3-yl)piperazin-1-yl)propan-1-one]
- Ki (EGFR T790M L858R): 11.5 nM
- Ki (EGFR del746-750 T790M): 33.7 nM

SMILES: CC(C)n1nc(N2CCN(C(=O)CO)CC2)c2cnc(Nc3ccnc(N4CCC(C)(O)CC4)n3)cc21 [Example 135, 2-Hydroxy-1-(4-(6-(2-(4-hydroxy-4-methylpiperidin-1-yl)pyrimidin-4-ylamino)-1-isopropyl-1H-pyrazolo[4,3-c]pyridin-3-yl)piperazin-1-yl)ethanone]
- Ki (EGFR T790M L858R): 10.3 nM
- Ki (EGFR del746-750 T790M): 46.3 nM

SMILES: CC(O)C(=O)N1CCN(c2nn(C(C)C)c3cc(Nc4ccnc(N5CCC(C)(O)CC5)n4)ncc23)CC1 (stereo not shown) [Example 136, 2-Hydroxy-1-(4-(6-(2-(4-hydroxy-4-methylpiperidin-1-yl)pyrimidin-4-ylamino)-1-isopropyl-1H-pyrazolo[4,3-c]pyridin-3-yl)piperazin-1-yl)propan-1-one]
- Ki (EGFR T790M L858R): 10.6 nM
- Ki (EGFR del746-750 T790M): 39.9 nM

SMILES: CC1COCC(C)N1c1nn(C(C)C)c2cc(Nc3ccnc(-c4cnn(S(=O)(=O)C5CC5)c4)n3)ncc12 (stereo not shown) [Example 180, N-(2-(1-(Cyclopropylsulfonyl)-1H-pyrazol-4-yl)pyrimidin-4-yl)-3-(3,5-dimethylmorpholino)-1-isopropyl-1H-pyrazolo[4,3-c]pyridin-6-amine]
- EC50 [2]: > 10000 nM
- Ki (EGFR T790M L858R): 302 nM
- Ki (EGFR del746-750 T790M): 201 nM

SMILES: CCC(C)n1nc(N2CC[C@H](O)C2=O)c2cnc(Nc3ccnc(N4CC[C@@H](O)[C@@H](F)C4)n3)cc21 (stereo partly drawn) [Example 201, (3S)-1-(1-(sec-Butyl)-6-((2-((3S,4R)-3-fluoro-4-hydroxypiperidin-1-yl)pyrimidin-4-yl)amino)-1H-pyrazolo[4,3-c]pyridin-3-yl)-3-hydroxypyrrolidin-2-one]
- EC50 [2]: > 10000 nM
- Ki (EGFR T790M L858R): 5.8 nM
- Ki (EGFR del746-750 T790M): 14 nM
